From patent US12473301B2, “Isoquinoline compounds for the treatment of cancer” (Genentech, Inc., priority 2018, dated 2025) come the findings set out here.

The target in the assay is HPK1 (Homo sapiens (Human), UniProt Q92918, S171E/T165E). Kind of assay: HPK1-FL HTRF Enzymatic Assay ("HTRF"). In kind it is biochemical. The following applies: HPK full length, ATP 1 mM. As to the method:
HPK1-FL HTRF Enzymatic Assay (“HTRF”)
HPK-FL enzyme phosphorylates Biotin-SLP-76 substrate in the presence of ATP at 1 mM and varying concentrations of test compound. Product is detected by FRET using Eu-anti-pSLP76 Ab and SA-XL665. Also see www.cisbio.com/HTRF for additional HTRF technology information.
Instrumentation: Echo555 compound dispenser; Agilent Bravo; Perkin Elmer Envision.
To a 384 well Proxiplate with 80 nL compound or DMSO spotted on was added 4 μl/well kinase mix. The mixture was preincubated for 30 minutes and then 4 μl/well substrate mix was added. The solution was incubated for 60 min and then 4 μl/well detection mix was added. The solution was incubated for another 60 min. The plates were then loaded onto a
Perkin Elmer Envision and the TR-FRET signal was measured at […] and 665 nm. A ratio of 665/620 was used to calculate the % activity at each concentration of compound.
For orientation: In TR-FRET formats the signal depends on donor and acceptor labels being close together.

Chain of HPK1 (Q92918 whole entry T165E/S171E): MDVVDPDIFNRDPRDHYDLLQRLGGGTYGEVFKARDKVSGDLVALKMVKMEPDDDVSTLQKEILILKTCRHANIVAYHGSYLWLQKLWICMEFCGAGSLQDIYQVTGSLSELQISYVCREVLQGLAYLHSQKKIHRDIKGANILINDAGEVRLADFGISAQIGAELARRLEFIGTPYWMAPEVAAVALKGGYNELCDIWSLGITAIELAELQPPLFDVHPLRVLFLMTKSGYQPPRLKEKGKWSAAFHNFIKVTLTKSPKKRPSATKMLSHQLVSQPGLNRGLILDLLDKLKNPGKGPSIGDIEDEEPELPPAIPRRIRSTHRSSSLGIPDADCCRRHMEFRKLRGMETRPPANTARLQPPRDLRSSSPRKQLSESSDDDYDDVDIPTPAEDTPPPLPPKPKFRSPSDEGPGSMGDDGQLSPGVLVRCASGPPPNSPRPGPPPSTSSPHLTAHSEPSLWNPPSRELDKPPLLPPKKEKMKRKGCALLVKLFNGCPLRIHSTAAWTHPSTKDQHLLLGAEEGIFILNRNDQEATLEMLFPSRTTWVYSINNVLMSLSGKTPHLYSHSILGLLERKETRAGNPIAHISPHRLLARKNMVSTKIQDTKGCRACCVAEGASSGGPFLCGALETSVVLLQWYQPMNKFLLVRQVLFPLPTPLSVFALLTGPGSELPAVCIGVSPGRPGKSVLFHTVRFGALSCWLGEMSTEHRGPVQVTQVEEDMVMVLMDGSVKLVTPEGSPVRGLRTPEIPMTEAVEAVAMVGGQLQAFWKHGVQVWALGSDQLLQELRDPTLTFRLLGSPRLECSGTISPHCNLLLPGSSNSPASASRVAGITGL

The Ki is the equilibrium dissociation constant of an inhibitor or competing ligand from its target. `Cc1c(-c2cc3cc(NC(=O)OCC4(F)CCNC4)ncc3cc2F)cnc2c1NCCO2` (racemic) [Compound 106, (3-Fluoropyrrolidin-3-yl)methyl (7-fluoro-6-(8-methyl-2,3-dihydro-1H-pyrido[2,3-b][1,4]oxazin-7-yl)isoquinolin-3-yl)carbamate] showed a Ki of 2.4 nM.
Under `Cc1c(-c2cc3cc(NC(=O)OCC4CCNC4)ncc3cc2F)cnc2c1NCCO2` (racemic) [Compound 107, Pyrrolidin-3-ylmethyl (7-fluoro-6-(8-methyl-2,3-dihydro-1H-pyrido[2,3-b][1,4]oxazin-7-yl)isoquinolin-3-yl)carbamate] stands 2.1 nM; under `Cc1c(-c2cc3cc(NC(=O)OC4COC5(CCNC5)C4)ncc3cc2F)cnc2c1NCCO2` (racemic) [Compound 108, 1-Oxa-7-azaspiro[4.4]nonan-3-yl (7-fluoro-6-(8-methyl-2,3-dihydro-1H-pyrido[2,3-b][1,4]oxazin-7-yl)isoquinolin-3-yl)carbamate], 4 nM; under `Cc1c(-c2cc3cc(NC(=O)OCC(C)N)ncc3cc2F)cnc2c1NCCO2` (racemic) [Compound 110, 2-Aminopropyl (7-fluoro-6-(8-methyl-2,3-dihydro-1H-pyrido[2,3-b][1,4]oxazin-7-yl)isoquinolin-3-yl)carbamate], 29 nM.
The compound `COC(C)CCOC(=O)Nc1cc2cc(-c3cnc4c(c3C)NCCO4)c(F)cc2cn1` (racemic) [Compound 114, 3-Methoxybutyl (7-fluoro-6-(8-methyl-2,3-dihydro-1H-pyrido[2,3-b][1,4]oxazin-7-yl)isoquinolin-3-yl)carbamate] gave a Ki of 1.5 nM.
Compound `Cc1c(-c2cc3cc(NC(=O)OCC4CCCCO4)ncc3cc2F)cnc2c1NCCO2` (racemic) [Compound 116, (Tetrahydro-2H-pyran-2-yl)methyl (7-fluoro-6-(8-methyl-2,3-dihydro-1H-pyrido[2,3-b][1,4]oxazin-7-yl)isoquinolin-3-yl)carbamate] returned a Ki of 7.5 nM.
The result for `Cc1c(-c2cc3cc(NC(=O)OCC45CC4CCN5)ncc3cc2F)cnc2c1NCCO2` (racemic) [Compound 122, (2-Azabicyclo[3.1.0]hexan-1-yl)methyl (7-fluoro-6-(8-methyl-2,3-dihydro-1H-pyrido[2,3-b][1,4]oxazin-7-yl)isoquinolin-3-yl)carbamate] reads 24 nM; that for `Cc1c(-c2cc3cc(NC(=O)OC4CCC45CCNC5)ncc3cc2F)cnc2c1NCCO2` (racemic) [Compound 123, 6-Azaspiro[3.4]octan-1-yl (7-fluoro-6-(8-methyl-2,3-dihydro-1H-pyrido[2,3-b][1,4]oxazin-7-yl)isoquinolin-3-yl)carbamate], 7.5 nM.
For `Cc1c(-c2cc3cc(NC(=O)O[C@H]4CCCC[C@@H]4C#N)ncc3c(Cl)c2F)cnc2c1NCCO2` (single isomer, unassigned) [Compound 126a], affinity was put at a Ki of 492 nM.
The compound `Cc1c(-c2cc3cc(NC(=O)O[C@@H]4CCCC[C@H]4C#N)ncc3c(Cl)c2F)cnc2c1NCCO2` (single isomer, unassigned) [Compound 126b] displayed a Ki of 0.945 nM.
The result for `Cc1c(-c2cc3cc(NC(=O)O[C@@H]4CCC[C@H]4C#N)ncc3c(Cl)c2F)cnc2c1NCCO2` (single isomer, unassigned) [Compound 127a] reads 0.805 nM.
With `Cc1c(-c2cc3cc(NC(=O)O[C@H]4CCC[C@@H]4C#N)ncc3c(Cl)c2F)cnc2c1NCCO2` (single isomer, unassigned) [Compound 127b], the Ki amounted to 3.75 nM.
The result for `Cc1c(-c2cc3cc(NC(=O)O[C@@H]4CCC[C@H]4C#N)ncc3cc2F)cnc2c1NCCO2` (single isomer, unassigned) [Compound 128a] reads 2.5 nM; that for `Cc1c(-c2cc3cc(NC(=O)O[C@H]4CCC[C@@H]4C#N)ncc3cc2F)cnc2c1NCCO2` (single isomer, unassigned) [Compound 128b], 0.78 nM.
In turn, `Cc1c(-c2cc3cc(NC(=O)NC(C)c4cnn(C)c4)ncc3cc2F)cnc2c1NCCO2` (single isomer, unassigned) [Compound 201a] gave a Ki of 0.95 nM.
The result for `Cc1c(-c2cc3cc(NC(=O)NC(C)c4cnn(C)c4)ncc3cc2F)cnc2c1NCCO2` (single isomer, unassigned) [Compound 201b] reads 10 nM.
The result for `Cc1c(-c2cc3cc(NC(=O)NC(C)CC#N)ncc3cc2F)cnc2c1NCCO2` (single isomer, unassigned) [Compound 203a] reads 4 nM; that for `Cc1c(-c2cc3cc(NC(=O)NC(C)CC#N)ncc3cc2F)cnc2c1NCCO2` (single isomer, unassigned) [Compound 203b], 1.1 nM.
Under `Cc1c(-c2cc3cc(NC(=O)NC4CCOC4)ncc3cc2F)cnc2c1NCCO2` (single isomer, unassigned) [Compound 206a] stands 0.88 nM.
In turn, `Cc1c(-c2cc3cc(NC(=O)NC4CCOC4)ncc3cc2F)cnc2c1NCCO2` (single isomer, unassigned) [Compound 206b] registered a Ki of 2.5 nM.
As for `CC[C@@H]1[C@@H](C(=O)Nc2cc3cc(-c4cnc5c(c4C)NCCO5)c(F)cc3cn2)[C@@H]1c1cnn(C)c1` (single isomer, unassigned) [Compound 301a], affinity was put at a Ki of 0.9 nM.
Under `CC[C@H]1[C@H](C(=O)Nc2cc3cc(-c4cnc5c(c4C)NCCO5)c(F)cc3cn2)[C@H]1c1cnn(C)c1` (single isomer, unassigned) [Compound 301b] stands 8 nM; under `CC[C@H]1[C@@H](C(=O)Nc2cc3cc(-c4cnc5c(c4C)NCCO5)c(F)cc3cn2)[C@@H]1c1cnn(C)c1` (single isomer, unassigned) [Compound 301d], 1.8 nM; under `Cc1c(-c2cc3cc(NC(=O)OCC4CC4)ncc3cc2F)cnc2c1NCCO2` [Compound 101, Cyclopropylmethyl (7-fluoro-6-(8-methyl-2,3-dihydro-1H-pyrido[2,3-b][1,4]oxazin-7-yl)isoquinolin-3-yl)carbamate], 2.7 nM.
Turning to `Cc1c(N)cncc1-c1cc2cc(NC(=O)OCC3CC3)ncc2cc1F` [Compound 102, Cyclopropylmethyl (6-(5-amino-4-methylpyridin-3-yl)-7-fluoroisoquinolin-3-yl)carbamate], the affinity corresponds to a Ki of 45 nM.
The result for `Cc1c(-c2cc3cc(NC(=O)OC4CCOCC4)ncc3cc2F)cnc2c1NCCO2` [Compound 103, Tetrahydro-2H-pyran-4-yl (7-fluoro-6-(8-methyl-2,3-dihydro-1H-pyrido[2,3-b][1,4]oxazin-7-yl)isoquinolin-3-yl)carbamate] reads 5 nM; that for `CC(=O)N1CC(OC(=O)Nc2cc3cc(-c4cnc5c(c4C)NCCO5)c(F)cc3cn2)C1` [Compound 104, 1-Acetylazetidin-3-yl (7-fluoro-6-(8-methyl-2,3-dihydro-1H-pyrido[2,3-b][1,4]oxazin-7-yl)isoquinolin-3-yl)carbamate], 2.9 nM; that for `CNC(=O)N1CC(OC(=O)Nc2cc3cc(-c4cnc5c(c4C)NCCO5)c(F)cc3cn2)C1` [Compound 105, 1-(Methylcarbamoyl)azetidin-3-yl (7-fluoro-6-(8-methyl-2,3-dihydro-1H-pyrido[2,3-b][1,4]oxazin-7-yl)isoquinolin-3-yl)carbamate], 0.91 nM.
The result for `Cc1c(-c2cc3cc(NC(=O)OC[C@H]4CCCN4)ncc3cc2F)cnc2c1NCCO2` [Compound 109a, (R)-Pyrrolidin-2-ylmethyl (7-fluoro-6-(8-methyl-2,3-dihydro-1H-pyrido[2,3-b][1,4]oxazin-7-yl)isoquinolin-3-yl)carbamate] reads 25 nM; that for `Cc1c(-c2cc3cc(NC(=O)OCC4(F)CCNCC4)ncc3cc2F)cnc2c1NCCO2` [Compound 111, (4-Fluoropiperidin-4-yl)methyl (7-fluoro-6-(8-methyl-2,3-dihydro-1H-pyrido[2,3-b][1,4]oxazin-7-yl)isoquinolin-3-yl)carbamate], 4 nM; that for `Cc1c(-c2cc3cc(NC(=O)OCCN)ncc3cc2F)cnc2c1NCCO2` [Compound 112, 2-Aminoethyl (7-fluoro-6-(8-methyl-2,3-dihydro-1H-pyrido[2,3-b][1,4]oxazin-7-yl)isoquinolin-3-yl)carbamate], 32 nM.
Under `Cc1c(-c2cc3cc(NC(=O)OCCS(C)(=O)=O)ncc3cc2F)cnc2c1NCCO2` [Compound 117, 2-(Methylsulfonyl)ethyl (7-fluoro-6-(8-methyl-2,3-dihydro-1H-pyrido[2,3-b][1,4]oxazin-7-yl)isoquinolin-3-yl)carbamate] stands 6.2 nM; under `Cc1c(-c2cc3cc(NC(=O)OCC(F)(F)F)ncc3cc2F)cnc2c1NCCO2` [Compound 118, 2,2,2-Trifluoroethyl (7-fluoro-6-(8-methyl-2,3-dihydro-1H-pyrido[2,3-b][1,4]oxazin-7-yl)isoquinolin-3-yl)carbamate], 205 nM.
`Cc1c(-c2cc3cc(NC(=O)OCCc4ccccn4)ncc3cc2F)cnc2c1NCCO2` [Compound 119, 2-(Pyridin-2-yl)ethyl (7-fluoro-6-(8-methyl-2,3-dihydro-1H-pyrido[2,3-b][1,4]oxazin-7-yl)isoquinolin-3-yl)carbamate] came in with a Ki of 9.5 nM.
Under `Cc1c(-c2cc3cc(NC(=O)OCC(C)(C)C)ncc3cc2F)cnc2c1NCCO2` [Compound 120, Neopentyl (7-fluoro-6-(8-methyl-2,3-dihydro-1H-pyrido[2,3-b][1,4]oxazin-7-yl)isoquinolin-3-yl)carbamate] stands 4.3 nM.
